Data published in publication PMC3726599, “A Metabolically-Stabilized Phosphonate Analog of Lysophosphatidic Acid Attenuates Collagen-Induced Arthritis” (PLoS ONE, 2013).

Tests used:
plasma ATX/LysoPLD = biological target: T1, plasma ATX/LysoPLD (Mus musculus, UniProt Q9R1E6); test: Plasma ATX/lysoPLD activity ex vivo (TOOS assay, exogenous LPC); format: biochemical; conditions: for IC50: TOOS
T1 construct: from tissue; host or cells: mouse plasma / whole blood
Protocol: (§1) ATX/LysoPLD activity was assessed based on the amount of choline released from LPC with the use of TOOS (N-ethyl-N-(2-hydoroxy-3-sulfopropyl)-3-methylaniline) reagent. In this assay ATX-mediated LPC-liberated choline is oxidised by choline oxidase to betaine and hydrogen peroxide (H2O2). The latter in the presence of horseradish peroxidase reacts with TOOS and 4-aminoantipyrene (4-AAP) to form a pink quinoneimine dye measured at 555 nm.
Diluted plasma samples (100 fold dilution; final EDTA concentration 0.5 mM) or recombinant ATX protein (2 nM) were incubated with LPC in the presence of 100 mmol/l Tris–HCl/pH 9.0, 500 mmol/l NaCl, 5 mmol/l MgCl2, 5 mmol/l CaCl2, 60 μM CoCl2 and 0.05% Triton X-100 for 3 h at 37°C at a final volume of 100 μl. It should be noted that EDTA was used not only as an anticoagulant but also as an inhibitor of ATX activity ex vivo [46], in order to suppress artificial LPA production during blood withdrawal and plasma preparation; this is because the same samples were used in phospholipid measurements.
(§2) The liberated choline was detected by adding 100 μl of a color mix containing 4-AAP and TOOS (0.3 mM), horseradish peroxidase (5.3 UnitmL^−1) and choline oxidase (2 UnitmL^−1). Absorbance was measured at 555 nm and data were analyzed using the statistical software package Prism 4.0 (Graphpad Software Inc, La Jolla, CA, USA). For each sample and control the absorbance was plotted against time and the slope (da/min) for the linear (steady-state) portion of each reaction profile was calculated. Absorbance units were converted to nmol of choline/min/ml by comparison with a choline standard curve or by use of the extinction coefficient for the quinoneimine dye according to the following equation: [drawing 1] Where Vt* is the total volume of reaction in ml (0.2 ml); Vs* is the volume of sample in ml; e is the millimolar extinction coefficient of quinoneimine dye under the assay conditions (e = e = 32.8 μmol/cm^2); and 1/2: Factor based on the fact that 1 mol of hydrogen peroxide produces 1/2 mol of quinoneimine dye.
For in vitro inhibition measurements, BrP-LPA was dissolved in water as a stock solution (4 mM) and appropriate dilutions were made in water. The inhibition of ATX by BrP-LPA was measured employing 2 nM recombinant ATX, 50 μΜ LPC (14:0, 16:0, 18:0) and 0.01 to 100 μmol/L of BrP-LPA (final concentrations). The in vitro inhibition of ATX by BrP-LPA was evaluated with three different assays (FS-3, Amplex Red, and TOOS). […] BrP-LPA was also tested for its ability to inhibit mouse plasma ATX activity. Diluted mouse plasma was used as the source of ATX and the analysis of inhibition was made with TOOS as the in vitro inhibition assay.
The inhibition model (competitive, noncompetitive, or mixed type inhibition) was evaluated by graphical analysis with Lineweaver–Burk double reciprocal plots (1/[velocity] versus 1/[substrate]) and Cornish-Bowden plot ([substrate]/[velocity] versus [Inhibitor]). These plots were generated by the measurement of ATX activity in the presence of different BrP-LPA concentrations (0–10 μΜ) and increased amounts of 16:0 LPC (100, 200, 400 μΜ). The inhibition constants (Ki) and IC50 values were determined using the mean values obtained from two independent experiments. The relative remaining ATX activity or LPA levels in the presence of the BrP-LPA was expressed as a percentage of the corresponding control value (ATX activity, LPA levels without inhibitor). The IC50 value was determined graphically by plotting the log concentration of BrP-LPA versus relative remaining ATX activity or LPA levels of each test sample using the sigmoid dose–response fitting method (Prism® software). The IC50 (concentration of BrP-LPA sufficient to inhibit ATX activity or diminish LPA levels by 50%) was calculated by the equation f = y0+a/(1+exp(-(x-x0)/b)) given by SigmaPlot 11.0 (Systat Software, Inc., San Jose, CA, USA).

plasma ATX activity = system: T2, plasma ATX activity; test: In vivo inhibition of plasma ATX activity (TOOS assay); parameters: species or system mouse; conditions: 10 mg/kg i.p.
T2 construct: from tissue; host or cells: mouse plasma / whole blood
Protocol: as §1, with “nm. […]” for “nm.”
as §2, with “Where Vt* is the total volume of reaction in ml (0.2 ml); Vs* is the volume of sample in ml; e is the millimolar extinction coefficient of quinoneimine dye under the assay conditions (e = e = 32.8 μmol/cm^2); and 1/2: Factor based on the fact that 1 mol of hydrogen peroxide produces 1/2 mol of quinoneimine dye.” left out
BrP-LPA was administered intraperitoneally (IP) at 10 mg/kg in water to 6–8 week old female mice. […] Plasma samples were then analysed for plasma ATX activity and BrP-LPA/LPA/LPC levels with the TOOS activity assay and HPLC-MS/MS respectively. […]

LPA1 = conditions: Ca++ mobilization, RH7777 cells; kind of constant not given; read-out: inhibition of LPA1; cited from earlier work

% Inhibition at 10 μΜ (plasma ATX/LysoPLD; 14:0 LPC 50 μΜ): 28%
% Inhibition at 10 μΜ (plasma ATX/LysoPLD; 16:0 LPC 50 μΜ): 58%
% Inhibition at 10 μΜ (plasma ATX/LysoPLD; 18:0 LPC 50 μΜ): 70%
IC50 (plasma ATX/LysoPLD; exogenous 14:0 LPC 50 μΜ): > 10000 nM
IC50 (plasma ATX/LysoPLD; exogenous 16:0 LPC 50 μΜ): 2900 ± 300 nM
IC50 (plasma ATX/LysoPLD; exogenous 18:0 LPC 50 μΜ): < 100 nM
SMILES: CCCCCCCCCCCCCCCC(=O)OC[C@@H](O)CC(Br)P(=O)(O)O (stereo partly drawn) [BrP-LPA, 1-bromo-3(S)-hydroxy-4-(palmitoyloxy)butyl-phosphonate]
reduction of plasma ATX activity (plasma ATX activity; 1 hour post administration): 48%
ATX activity, % of initial activity (plasma ATX activity; sixteen hours post administration): 92%
IC50 (LPA1): 1500 nM
